Legend:
[1] = biological target: T1, TCPTP (Homo sapiens, UniProt P17706); assay: EC50 assay: TCPTP activation by ITGA1 peptides (pEGFR peptide-1 dephosphorylation); format: biochemical; settings: 1 nM TCPTP, 50 μM pEGFR peptide-1, pH 7.4, 30 °C 30 min, n = 3
T1 construct: fragments of TCPTP (residues: 1–387); His6 (N, cleaved yes); made in house; host or cells: E. coli BL21 (DE3) RIL
T1 sequence (P17706 1-387 isoform P17706-2): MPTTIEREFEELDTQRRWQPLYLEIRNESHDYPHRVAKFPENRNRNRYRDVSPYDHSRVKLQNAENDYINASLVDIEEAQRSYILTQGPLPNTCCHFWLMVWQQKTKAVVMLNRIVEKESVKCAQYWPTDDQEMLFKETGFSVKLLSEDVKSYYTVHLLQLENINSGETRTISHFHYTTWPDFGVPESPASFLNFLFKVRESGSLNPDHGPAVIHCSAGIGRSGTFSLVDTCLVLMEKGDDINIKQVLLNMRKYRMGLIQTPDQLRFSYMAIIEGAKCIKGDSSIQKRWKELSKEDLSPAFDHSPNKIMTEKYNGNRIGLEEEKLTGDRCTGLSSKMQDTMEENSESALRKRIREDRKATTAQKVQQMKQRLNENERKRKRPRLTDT
Excerpt: (§1) Polymerase chain reaction (PCR) fragments of TCPTP (residues: 1–387) TCPTPCAT (catalytic domain, residues: 1–288, 1–302 or 1–314), TCPTPTail (C-terminal tail, residues: 289–387 or 303–387) were amplified from full-length human TCPTP (TC45 isoform). TCPTP, TCPTPCAT (residues: 1–288, 1–314), and TCPTPTail (residues: 289–387) fragments were cloned into pMCSG7 including a N-terminal His6-tag using ligation-independent cloning. For all NMR experiments, the PCR fragments of TCPTP, TCPTPCAT (residues: 1–302) and TCPTPTail (residue: 303–387) were sub-cloned into pRP1B as previously described.
To determine the EC50, synthesized ITGA1 peptides (ITGA1_FCT, ITGA1_TCT and ITGA1_TR) were mixed with TCPTP, and phosphatase activity was measured using the phospho-EGFR peptides (pEGFR peptide-1) as substrate. Lyophilized powder of all peptides was dissolved in 25 mM Hepes pH 7.4, 50 mM NaCl. For the assay, the TCPTP concentration was fixed at 1 nM and substrate phospho-peptide at 50 μM. […] The absorbance of the reaction mixture was measured at 650 nm, which was converted to the amount of phosphate produced in reaction based on the standard curve generated from the known phosphate concentration. Data obtained from the reaction was fitted using nonlinear regression mode and EC50 values were calculated based on the equation function “Log(agonist) vs. response-variable slope” using Graph Pad Prism 9.0.

[2] = biological target: T1, TCPTP; assay: Kinetics of TCPTP with saturating ITGA1 peptide, pEGFR peptide-1 substrate; format: biochemical; settings: TCPTP saturated with ITGA1 peptide (ITGA1_TR 1 μM; ITGA1_FCT 25 μM), mean ± SE, n = 9
Excerpt: as §1
The rate of dephosphorylation of TCPTP and TCPTPCAT (residue 1–314) against 2 phosphotyrosine peptides derived from EGFR was monitored either with or without ITGA1 peptide (ITGA1_FCT & ITGA1_TR) in assay buffer (25 mM Hepes pH 7.4, 50 mM NaCl and 1 mM DTT). Lyophilized powder of all synthetic peptides was dissolved in assay buffer without DTT (phosphopeptides, 5 mM; ITGA1 peptides, 2 mM). For the kinetic analysis, the concentration of the enzyme was fixed at 1 nM while the substrate (phosphopeptides) concentration was varied from 2.5 μM to 160 μM in a total reaction volume of 200 μl. Effect of ITGA1 peptide on TCPTP & TCPTPCAT kinetics were assessed in saturated condition by adding an excess amount of ITGA1 peptide to the reaction mixture (ITGA1_TR = 1 μM; ITGA1_FCT = 25 μM). The reaction was incubated at 30 °C for 30 min and stopped by the addition of 30 μl phosphate reagent (phosphate colorimetric assay kit; Bio Vision) following the manufacturer’s instructions. Data were normalized and fitted using a nonlinear curve, and kinetics parameters (KM and kcat) were calculated from the Michaelis-Menten equation using Graph Pad Prism 9.0. All data points in the enzyme kinetics experiment were measured in triplicate, and the experiments were repeated three times.

## RPLKKKMEKRPLKKKMEK [ITGA1_TR, ITGA1 tandem repeat (2x ITGA1_TCT): …]
[1]
  activation in EC50 assays (rank): strongest activation
[2]; pEGFR peptide-1, 1 nM enzyme, pH 7.4, 30 °C 30 min
  kcat: 26.2 ± 0.6 s⁻¹
[2]; pEGFR peptide-1, pH 7.4, 30 °C
  Km: 15.9 ± 1.3 µM
[2]; pEGFR peptide-1
  kcat/Km: 1.6e+06 ± 100000 M⁻¹ s⁻¹
